# Results reported in the NIST ThermoML archive (doi:10.1021/acs.jced.8b00948).
# Numbers after ± are expanded uncertainties.
# Test: xn = mol fraction of the nth substance listed
# Details: for surface tension liquid-gas: Pendant drop shape; for viscosity: 101 kPa, Liquid, Concentric cylinders viscometry
structure (smiles),measurement,setting,value
CCCCO [butan-1-ol] + COS(=O)(=O)[O-].Cn1cc[n+](C)c1,surface tension liquid-gas,"298.15 K, x2 = 0",23.9 ± 0.5 mN/m
same,viscosity,"298.15 K, x2 = 0",2.57 ± 0.15 mPa·s
same,surface tension liquid-gas,"303.15 K, x2 = 0",23.5 ± 0.5 mN/m
same,viscosity,"303.15 K, x2 = 0",2.28 ± 0.14 mPa·s
same,surface tension liquid-gas,"308.15 K, x2 = 0",23.1 ± 0.5 mN/m
same,viscosity,"308.15 K, x2 = 0",2.01 ± 0.12 mPa·s
same,surface tension liquid-gas,"313.15 K, x2 = 0",22.7 ± 0.5 mN/m
same,viscosity,"313.15 K, x2 = 0",1.75 ± 0.11 mPa·s
CCCO [propan-1-ol] + CCn1cc[n+](C)c1.COS(=O)(=O)[O-],surface tension liquid-gas,"298.15 K, x2 = 0",23.2 ± 0.5 mN/m
same,viscosity,"298.15 K, x2 = 0",1.94 ± 0.12 mPa·s
same,surface tension liquid-gas,"303.15 K, x2 = 0",22.8 ± 0.5 mN/m
same,viscosity,"303.15 K, x2 = 0",1.72 ± 0.1 mPa·s
same,surface tension liquid-gas,"308.15 K, x2 = 0",22.3 ± 0.5 mN/m
same,viscosity,"308.15 K, x2 = 0",1.54 ± 0.09 mPa·s
same,surface tension liquid-gas,"313.15 K, x2 = 0",21.9 ± 0.5 mN/m
same,viscosity,"313.15 K, x2 = 0",1.38 ± 0.08 mPa·s
CCn1cc[n+](C)c1.COS(=O)(=O)[O-] [1-ethyl-3-methylimidazolium methylsulfate] + CCCCO,surface tension liquid-gas,"298.15 K, x1 = 0.041",25 ± 0.6 mN/m
same,surface tension liquid-gas,"298.15 K, x1 = 0.219",29.9 ± 0.7 mN/m
same,surface tension liquid-gas,"298.15 K, x1 = 0.417",35.3 ± 0.8 mN/m
same,surface tension liquid-gas,"298.15 K, x1 = 0.571",39.8 ± 0.9 mN/m
same,surface tension liquid-gas,"298.15 K, x1 = 0.731",44.4 ± 1 mN/m
same,surface tension liquid-gas,"298.15 K, x1 = 0.909",49.8 ± 1.2 mN/m
same,surface tension liquid-gas,"298.15 K, x1 = 1",52.5 ± 1.3 mN/m
same,viscosity,"298.15 K, x1 = 0.041",3.84 ± 0.24 mPa·s
same,viscosity,"298.15 K, x1 = 0.219",10.7 ± 0.7 mPa·s
same,viscosity,"298.15 K, x1 = 0.417",20.3 ± 1.2 mPa·s
same,viscosity,"298.15 K, x1 = 0.571",29 ± 1.8 mPa·s
same,viscosity,"298.15 K, x1 = 0.731",41.1 ± 2.5 mPa·s
same,viscosity,"298.15 K, x1 = 0.909",58.2 ± 3.5 mPa·s
same,viscosity,"298.15 K, x1 = 1",68.5 ± 4.2 mPa·s
same,surface tension liquid-gas,"303.15 K, x1 = 0.041",24.7 ± 0.6 mN/m
same,surface tension liquid-gas,"303.15 K, x1 = 0.219",29.5 ± 0.7 mN/m
same,surface tension liquid-gas,"303.15 K, x1 = 0.417",35.1 ± 0.8 mN/m
same,surface tension liquid-gas,"303.15 K, x1 = 0.571",39.5 ± 0.9 mN/m
same,surface tension liquid-gas,"303.15 K, x1 = 0.731",44.2 ± 1 mN/m
same,surface tension liquid-gas,"303.15 K, x1 = 0.909",49.5 ± 1.2 mN/m
same,surface tension liquid-gas,"303.15 K, x1 = 1",52.2 ± 1.2 mN/m
same,viscosity,"303.15 K, x1 = 0.041",3.3 ± 0.21 mPa·s
same,viscosity,"303.15 K, x1 = 0.219",8.75 ± 0.53 mPa·s
same,viscosity,"303.15 K, x1 = 0.417",16.4 ± 1 mPa·s
same,viscosity,"303.15 K, x1 = 0.571",23.4 ± 1.4 mPa·s
same,viscosity,"303.15 K, x1 = 0.731",33.1 ± 2 mPa·s
same,viscosity,"303.15 K, x1 = 0.909",46.8 ± 2.8 mPa·s
same,viscosity,"303.15 K, x1 = 1",55.4 ± 3.4 mPa·s
same,surface tension liquid-gas,"308.15 K, x1 = 0.041",24.3 ± 0.6 mN/m
same,surface tension liquid-gas,"308.15 K, x1 = 0.219",29.2 ± 0.7 mN/m
same,surface tension liquid-gas,"308.15 K, x1 = 0.417",34.7 ± 0.8 mN/m
same,surface tension liquid-gas,"308.15 K, x1 = 0.571",39.2 ± 0.9 mN/m
same,surface tension liquid-gas,"308.15 K, x1 = 0.731",43.9 ± 1 mN/m
same,surface tension liquid-gas,"308.15 K, x1 = 0.909",49.2 ± 1.2 mN/m
same,surface tension liquid-gas,"308.15 K, x1 = 1",51.9 ± 1.2 mN/m
same,viscosity,"308.15 K, x1 = 0.041",2.86 ± 0.18 mPa·s
same,viscosity,"308.15 K, x1 = 0.219",7.38 ± 0.45 mPa·s
same,viscosity,"308.15 K, x1 = 0.417",13.8 ± 0.8 mPa·s
same,viscosity,"308.15 K, x1 = 0.571",19.5 ± 1.2 mPa·s
same,viscosity,"308.15 K, x1 = 0.731",27.5 ± 1.7 mPa·s
same,viscosity,"308.15 K, x1 = 0.909",38.4 ± 2.3 mPa·s
same,viscosity,"308.15 K, x1 = 1",45.5 ± 2.8 mPa·s
same,surface tension liquid-gas,"313.15 K, x1 = 0.041",23.9 ± 0.5 mN/m
same,surface tension liquid-gas,"313.15 K, x1 = 0.219",28.9 ± 0.7 mN/m
same,surface tension liquid-gas,"313.15 K, x1 = 0.417",34.5 ± 0.8 mN/m
same,surface tension liquid-gas,"313.15 K, x1 = 0.571",38.9 ± 0.9 mN/m
same,surface tension liquid-gas,"313.15 K, x1 = 0.731",43.6 ± 1 mN/m
same,surface tension liquid-gas,"313.15 K, x1 = 0.909",48.9 ± 1.2 mN/m
same,surface tension liquid-gas,"313.15 K, x1 = 1",51.6 ± 1.2 mN/m
same,viscosity,"313.15 K, x1 = 0.041",2.45 ± 0.15 mPa·s
same,viscosity,"313.15 K, x1 = 0.219",6.22 ± 0.38 mPa·s
same,viscosity,"313.15 K, x1 = 0.417",11.4 ± 0.7 mPa·s
same,viscosity,"313.15 K, x1 = 0.571",16.2 ± 1 mPa·s
same,viscosity,"313.15 K, x1 = 0.731",22.8 ± 1.4 mPa·s
same,viscosity,"313.15 K, x1 = 0.909",31.8 ± 1.9 mPa·s
same,viscosity,"313.15 K, x1 = 1",37.9 ± 2.3 mPa·s
CCCO [propan-1-ol] + COS(=O)(=O)[O-].Cn1cc[n+](C)c1,surface tension liquid-gas,"298.15 K, x2 = 0",23.2 ± 0.5 mN/m
same,viscosity,"298.15 K, x2 = 0",1.94 ± 0.12 mPa·s
same,surface tension liquid-gas,"303.15 K, x2 = 0",22.8 ± 0.5 mN/m
same,viscosity,"303.15 K, x2 = 0",1.72 ± 0.1 mPa·s
same,surface tension liquid-gas,"308.15 K, x2 = 0",22.3 ± 0.5 mN/m
same,viscosity,"308.15 K, x2 = 0",1.54 ± 0.09 mPa·s
same,surface tension liquid-gas,"313.15 K, x2 = 0",21.9 ± 0.5 mN/m
same,viscosity,"313.15 K, x2 = 0",1.38 ± 0.08 mPa·s
CCCCCO [pentan-1-ol] + COS(=O)(=O)[O-].Cn1cc[n+](C)c1,surface tension liquid-gas,"298.15 K, x2 = 0",24.7 ± 0.6 mN/m
same,viscosity,"298.15 K, x2 = 0",3.51 ± 0.21 mPa·s
same,surface tension liquid-gas,"303.15 K, x2 = 0",24.3 ± 0.5 mN/m
same,viscosity,"303.15 K, x2 = 0",2.84 ± 0.17 mPa·s
same,surface tension liquid-gas,"308.15 K, x2 = 0",23.9 ± 0.5 mN/m
same,viscosity,"308.15 K, x2 = 0",2.64 ± 0.16 mPa·s
same,surface tension liquid-gas,"313.15 K, x2 = 0",23.5 ± 0.5 mN/m
same,viscosity,"313.15 K, x2 = 0",2.34 ± 0.14 mPa·s
CCn1cc[n+](C)c1.COS(=O)(=O)[O-] [1-ethyl-3-methylimidazolium methylsulfate] + CCCO,surface tension liquid-gas,"298.15 K, x1 = 0.059",24.8 ± 0.6 mN/m
same,surface tension liquid-gas,"298.15 K, x1 = 0.228",29.5 ± 0.7 mN/m
same,surface tension liquid-gas,"298.15 K, x1 = 0.375",33.6 ± 0.8 mN/m
same,surface tension liquid-gas,"298.15 K, x1 = 0.524",38 ± 0.9 mN/m
same,surface tension liquid-gas,"298.15 K, x1 = 0.72",43.8 ± 1 mN/m
same,surface tension liquid-gas,"298.15 K, x1 = 0.874",48.6 ± 1.1 mN/m
same,surface tension liquid-gas,"298.15 K, x1 = 1",52.5 ± 1.3 mN/m
same,viscosity,"298.15 K, x1 = 0.059",3.71 ± 0.23 mPa·s
same,viscosity,"298.15 K, x1 = 0.228",9.94 ± 0.6 mPa·s
same,viscosity,"298.15 K, x1 = 0.375",17 ± 1 mPa·s
same,viscosity,"298.15 K, x1 = 0.524",24.7 ± 1.5 mPa·s
same,viscosity,"298.15 K, x1 = 0.72",38.9 ± 2.4 mPa·s
same,viscosity,"298.15 K, x1 = 0.874",52.7 ± 3.2 mPa·s
same,viscosity,"298.15 K, x1 = 1",68.5 ± 4.2 mPa·s
same,surface tension liquid-gas,"303.15 K, x1 = 0.059",24.4 ± 0.6 mN/m
same,surface tension liquid-gas,"303.15 K, x1 = 0.228",29.1 ± 0.7 mN/m
same,surface tension liquid-gas,"303.15 K, x1 = 0.375",33.4 ± 0.8 mN/m
same,surface tension liquid-gas,"303.15 K, x1 = 0.524",37.7 ± 0.9 mN/m
same,surface tension liquid-gas,"303.15 K, x1 = 0.72",43.6 ± 1 mN/m
same,surface tension liquid-gas,"303.15 K, x1 = 0.874",48.3 ± 1.1 mN/m
same,surface tension liquid-gas,"303.15 K, x1 = 1",52.2 ± 1.2 mN/m
same,viscosity,"303.15 K, x1 = 0.059",3.14 ± 0.2 mPa·s
same,viscosity,"303.15 K, x1 = 0.228",8.07 ± 0.49 mPa·s
same,viscosity,"303.15 K, x1 = 0.375",13.7 ± 0.8 mPa·s
same,viscosity,"303.15 K, x1 = 0.524",19.8 ± 1.2 mPa·s
same,viscosity,"303.15 K, x1 = 0.72",31.3 ± 1.9 mPa·s
same,viscosity,"303.15 K, x1 = 0.874",42.5 ± 2.6 mPa·s
same,viscosity,"303.15 K, x1 = 1",55.4 ± 3.4 mPa·s
same,surface tension liquid-gas,"308.15 K, x1 = 0.059",24 ± 0.5 mN/m
same,surface tension liquid-gas,"308.15 K, x1 = 0.228",28.8 ± 0.7 mN/m
same,surface tension liquid-gas,"308.15 K, x1 = 0.375",33.1 ± 0.7 mN/m
same,surface tension liquid-gas,"308.15 K, x1 = 0.524",37.4 ± 0.9 mN/m
same,surface tension liquid-gas,"308.15 K, x1 = 0.72",43.3 ± 1 mN/m
same,surface tension liquid-gas,"308.15 K, x1 = 0.874",48 ± 1.1 mN/m
same,surface tension liquid-gas,"308.15 K, x1 = 1",51.9 ± 1.2 mN/m
same,viscosity,"308.15 K, x1 = 0.059",2.72 ± 0.17 mPa·s
same,viscosity,"308.15 K, x1 = 0.228",6.8 ± 0.41 mPa·s
same,viscosity,"308.15 K, x1 = 0.375",11.6 ± 0.7 mPa·s
same,viscosity,"308.15 K, x1 = 0.524",16.6 ± 1 mPa·s
same,viscosity,"308.15 K, x1 = 0.72",25.9 ± 1.6 mPa·s
same,viscosity,"308.15 K, x1 = 0.874",35.1 ± 2.1 mPa·s
same,viscosity,"308.15 K, x1 = 1",45.5 ± 2.8 mPa·s
same,surface tension liquid-gas,"313.15 K, x1 = 0.059",23.6 ± 0.5 mN/m
same,surface tension liquid-gas,"313.15 K, x1 = 0.228",28.5 ± 0.6 mN/m
same,surface tension liquid-gas,"313.15 K, x1 = 0.375",32.8 ± 0.7 mN/m
same,surface tension liquid-gas,"313.15 K, x1 = 0.524",37.2 ± 0.8 mN/m
same,surface tension liquid-gas,"313.15 K, x1 = 0.72",43 ± 1 mN/m
same,surface tension liquid-gas,"313.15 K, x1 = 0.874",47.7 ± 1.1 mN/m
same,surface tension liquid-gas,"313.15 K, x1 = 1",51.6 ± 1.2 mN/m
same,viscosity,"313.15 K, x1 = 0.059",2.36 ± 0.15 mPa·s
same,viscosity,"313.15 K, x1 = 0.228",5.75 ± 0.35 mPa·s
same,viscosity,"313.15 K, x1 = 0.375",9.72 ± 0.59 mPa·s
same,viscosity,"313.15 K, x1 = 0.524",13.9 ± 0.8 mPa·s
same,viscosity,"313.15 K, x1 = 0.72",21.6 ± 1.3 mPa·s
same,viscosity,"313.15 K, x1 = 0.874",29.2 ± 1.8 mPa·s
same,viscosity,"313.15 K, x1 = 1",37.9 ± 2.3 mPa·s
